Assay results as given in patent US9371331B2, “Modulators of methyl modifying enzymes, compositions and uses thereof” (Constellation Pharmaceuticals, Inc., priority 2012, dated 2016).
Like-named read-outs stand apart in the source and are kept apart here.

Experiments:
[1] = biological target: EZH2 (rPRC2) (Homo sapiens, UniProt Q15910); test: EZH2 assay: rPRC2, biotinylated oligonucleosomes, 3H SAM methyl transfer (FlashPlate scintillation); type: biochemical; details: biotinylated oligonucleosome substrate
Experimental: Assays were carried out by mixing rPRC2 together with biotinylated oligonucleosome substrates in the presence of the radio-labeled enzyme co-factor, S-adenosyl-1-methionine (^3H SAM) (Perkin Elmer) and monitoring the enzymatically mediated transfer of tritiated methyl groups from ^3H SAM to histone lysine residues. The amount of resulting tritiated methyl histone product was measured by first capturing the biotinylated oligonucleosomes in streptavidin (SAV) coated FlashPlates (Perkin Elmer), followed by a wash step to remove un-reacted ^3H SAM, and then counting on a TopCount NXT 384 well plate scintillation counter (Perkin Elmer). The final assay conditions for EZH2 were as follows: 50 mM Tris Buffer pH 8.5, 1 mM DTT, 69 μM Brij-35 detergent, 5.0 mM MgCl2, 0.1 mg/mL BSA, 0.2 μM ^3H SAM, 0.2 μM biotinylated oligonucleosomes, 3.6 μM H3K27 mc3 peptide and 2 nM EZH2.
A 12.5 μL volume of the HMT enzyme, H3K27me3 peptide and oligonucleosome substrate in assay buffer was added to each well of the assay plate using a Multidrop Combi (ThermoFisher). Compounds were pre-incubated with the enzyme for 20 min, followed by initiation of the methyltransferase reaction by addition of 12.5 μL of ^3H SAM in assay buffer (final volume=25 μL). The final concentrations of compounds ranged from a top default concentration of 80 μM down to 0.16 μM in ten 2-fold dilution steps. Reactions were carried out for 60 minutes and quenched with 20 μL per well of 1.96 mM SAH, 50 mM Tris pH 8.5, 200 mM EDTA. Stopped reactions were transferred to SAV coated Flashplates (Perkin Elmer), incubated for 120 min, washed with a plate washer, and then read on the TopCount NXT (1.0 min/well) to measure the amount of methyl histone product formed during the reaction.

[2] = biological target: Y641N EZH2 (Homo sapiens, UniProt Q15910, Y641N); test: Y641N EZH2 assay: as EZH2 assay, with reconstituted H3K27Me2 oligonucleosomes as substrate; type: biochemical
[3] = EZH2 IC50, wild-type EZH2 (rPRC2)
[4] = Y641N EZH2 IC50, Y641N mutant EZH2, H3K27Me2 oligonucleosome substrate
[5] = wild-type EZH2 (rPRC2), read-out: EZH2 IC50
[6] = Y641N mutant EZH2, H3K27Me2 oligonucleosome substrate, read-out: Y641N EZH2 IC50
[7] = Y641N mutant EZH2, H3K27Me2 oligonucleosome substrate

Sequence of EZH2 (rPRC2) (Q15910 whole entry): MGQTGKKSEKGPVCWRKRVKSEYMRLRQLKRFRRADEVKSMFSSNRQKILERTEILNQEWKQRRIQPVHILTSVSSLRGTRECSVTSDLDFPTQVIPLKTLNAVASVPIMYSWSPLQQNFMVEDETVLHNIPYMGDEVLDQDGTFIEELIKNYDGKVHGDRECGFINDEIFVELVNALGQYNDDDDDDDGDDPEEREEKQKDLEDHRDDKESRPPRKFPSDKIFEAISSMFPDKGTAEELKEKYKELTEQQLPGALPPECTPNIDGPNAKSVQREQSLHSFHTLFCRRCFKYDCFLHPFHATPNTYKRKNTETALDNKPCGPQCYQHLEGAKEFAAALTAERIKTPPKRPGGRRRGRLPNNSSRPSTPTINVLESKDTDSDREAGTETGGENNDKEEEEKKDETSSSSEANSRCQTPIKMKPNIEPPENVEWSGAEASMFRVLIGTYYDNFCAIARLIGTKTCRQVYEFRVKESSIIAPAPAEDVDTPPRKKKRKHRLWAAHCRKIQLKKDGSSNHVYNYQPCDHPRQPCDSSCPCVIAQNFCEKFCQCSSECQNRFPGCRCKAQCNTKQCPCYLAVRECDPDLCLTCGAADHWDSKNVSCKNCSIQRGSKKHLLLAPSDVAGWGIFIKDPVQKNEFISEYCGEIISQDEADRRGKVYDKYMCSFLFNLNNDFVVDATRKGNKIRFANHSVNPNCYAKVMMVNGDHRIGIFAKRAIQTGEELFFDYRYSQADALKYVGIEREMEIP
Sequence of EZH2 (rPRC2) (O75530 whole entry partner): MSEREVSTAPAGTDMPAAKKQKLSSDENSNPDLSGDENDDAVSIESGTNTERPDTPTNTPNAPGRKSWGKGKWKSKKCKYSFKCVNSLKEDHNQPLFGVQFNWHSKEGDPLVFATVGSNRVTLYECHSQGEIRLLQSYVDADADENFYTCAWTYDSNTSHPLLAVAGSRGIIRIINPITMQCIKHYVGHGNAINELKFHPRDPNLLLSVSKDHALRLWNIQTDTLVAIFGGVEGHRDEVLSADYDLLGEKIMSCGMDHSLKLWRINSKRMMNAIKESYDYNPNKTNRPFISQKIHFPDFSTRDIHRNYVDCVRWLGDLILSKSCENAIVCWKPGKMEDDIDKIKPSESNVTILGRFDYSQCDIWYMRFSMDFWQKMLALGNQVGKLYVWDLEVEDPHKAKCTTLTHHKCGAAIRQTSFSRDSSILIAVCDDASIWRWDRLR
Sequence of EZH2 (rPRC2) (Q15022 whole entry partner): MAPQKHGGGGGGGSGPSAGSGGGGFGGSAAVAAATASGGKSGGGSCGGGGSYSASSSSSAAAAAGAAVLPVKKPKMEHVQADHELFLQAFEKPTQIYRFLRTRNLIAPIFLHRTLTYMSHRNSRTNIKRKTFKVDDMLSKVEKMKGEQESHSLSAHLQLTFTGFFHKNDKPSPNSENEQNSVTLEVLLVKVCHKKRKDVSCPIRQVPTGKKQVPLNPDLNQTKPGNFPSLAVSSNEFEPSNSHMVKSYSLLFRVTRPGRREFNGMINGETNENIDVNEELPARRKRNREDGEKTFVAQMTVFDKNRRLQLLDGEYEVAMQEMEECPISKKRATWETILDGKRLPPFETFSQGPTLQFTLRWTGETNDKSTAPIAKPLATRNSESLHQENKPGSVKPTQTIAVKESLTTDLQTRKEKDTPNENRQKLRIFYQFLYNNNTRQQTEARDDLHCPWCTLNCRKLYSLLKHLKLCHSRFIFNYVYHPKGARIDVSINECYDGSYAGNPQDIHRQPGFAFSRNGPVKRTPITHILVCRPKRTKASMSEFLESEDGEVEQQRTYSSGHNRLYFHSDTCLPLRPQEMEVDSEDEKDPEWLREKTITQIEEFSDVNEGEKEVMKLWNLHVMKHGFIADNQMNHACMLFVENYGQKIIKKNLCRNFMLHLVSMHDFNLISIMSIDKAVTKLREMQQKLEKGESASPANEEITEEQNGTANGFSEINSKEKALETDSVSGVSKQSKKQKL
Sequence of Y641N EZH2 (Q15910 whole entry Y641N): as the sequence (Q15910 whole entry) above, with Y641N counted along it
Sequence of Y641N EZH2 (O75530 whole entry partner): as the sequence (O75530 whole entry partner) above
Sequence of Y641N EZH2 (Q15022 whole entry partner): as the sequence (Q15022 whole entry partner) above

Row | SMILES | IC50 [1, 3] [µM] | IC50 [2, 4] [µM] | IC50 [1, 5] [µM] | IC50 [2, 6] [µM] | Y641N EZH2 IC50 [2, 7]
1 | CCOc1cc(C)[nH]c(=O)c1CNC(=O)c1c(C)n(C(C)COC)c2ncccc12 (racemic) [Compound 235, (±)-N-((4-ethoxy-6-methyl-2-oxo-1,2-dihydropyridin-3-yl)methyl)-1-(1-methoxypropan-2-yl)-2-methyl-1H-pyrrolo[2,3-b]pyridine-3-carboxamide] | 0.1 to 1 | 1 to 10 |  |  | 
2 | Cc1cc(C)c(CNC(=O)c2c(C)n(C(C)CN3CCOCC3)c3ncccc23)c(=O)[nH]1 (racemic) [Compound 237, (±)-N-((4,6-dimethyl-2-oxo-1,2-dihydropyridin-3-yl)methyl)-2-methyl-1-(1-morpholinopropan-2-yl)-1H-pyrrolo[2,3-b]pyridine-3-carboxamide] | 0.1 to 1 | 1 to 10 |  |  | 
3 | Cc1cc(C)c(CNC(=O)c2c(C)n(C(C)Cn3ccccc3=O)c3ncccc23)c(=O)[nH]1 (racemic) [Compound 249, (±)-N-((4,6-dimethyl-2-oxo-1,2-dihydropyridin-3-yl)methyl)-2-methyl-1-(1-(2-oxopyridin-1(2H)-yl)propan-2-yl)-1H-pyrrolo[2,3-b]pyridine-3-carboxamide] |  |  | 0.1 to 1 | 1 to 10 | 
4 | COc1cc(C)[nH]c(=O)c1CNC(=O)c1c(C)n(C(C)COc2ccccn2)c2ncccc12 (racemic) [Compound 251, (±)-N-((4-methoxy-6-methyl-2-oxo-1,2-dihydropyridin-3-yl)methyl)-2-methyl-1-(1-(pyridine-2-yloxy)propan-2-yl)-1H-pyrrolo[2,3-b]pyridine-3-carboxamide] |  |  | 0.1 to 1 | 0.1 to 1 | 
5 | CCOc1cc(C)[nH]c(=O)c1CNC(=O)c1c(C)n(C(C)c2ccccc2)c2cnccc12 (racemic) [Compound 255, (±)-N-((4-ethoxy-6-methyl-2-oxo-1,2-dihydropyridin-3-yl)methyl)-2-methyl-1-(1-phenylethyl)-1H-pyrrolo[2,3-c]pyridine-3-carboxamide] | < 0.1 | 1 to 10 |  |  | 
6 | COCC(C)n1c(C)c(C(=O)NCc2c(OC)cc(C3CC3)[nH]c2=O)c2cccnc21 (racemic) [Compound 260, (±)-N-((6-cyclopropyl-4-methoxy-2-oxo-1,2-dihydropyridin-3-yl)methyl)-1-(1-methoxypropan-2-yl)-2-methyl-1H-pyrrolo[2,3-b]pyridine-3-carboxamide] | 0.1 to 1 | 1 to 10 |  |  | 
7 | Cc1cc(C)c(CNC(=O)c2c(C)n(C(C)CN3CCCCC3)c3ncccc23)c(=O)[nH]1 (racemic) [Compound 272, (±)-N-((4,6-dimethyl-2-oxo-1,2-dihydropyridin-3-yl)methyl)-2-methyl-1-(1-(piperidin-1-yl)propan-2-yl)-1H-pyrrolo[2,3-b]pyridine-3-carboxamide] | 1 to 10 |  |  |  | *(10 μM)
8 | CCC(OC)C(C)n1c(C)c(C(=O)NCc2c(C)cc(C)[nH]c2=O)c2ccccc21 (racemic) [Compound 275, (±)-N-((4,6-dimethyl-2-oxo-1,2-dihydropyridin-3-yl)methyl)-1-(3-methoxypentan-2-yl)-2-methyl-1H-indole-3-carboxamide] | < 0.1 | < 0.1 |  |  | 
9 | COc1cc(C)[nH]c(=O)c1CNC(=O)c1c(C)n(C(C)C(C)(C)OC)c2ccccc12 (racemic) [Compound 277, (±)-1-(3-methoxy-3-methylbutan-2-yl)-N-((4-methoxy-6-methyl-2-oxo-1,2-dihydropyridin-3-yl)methyl)-2-methyl-1H-indole-3-carboxamide] | < 0.1 | < 0.1 |  |  | 
10 | CCc1cc(OC)c(CNC(=O)c2c(C)n(C(C)COC)c3ncccc23)c(=O)[nH]1 (racemic) [Compound 280, (±)-N-((6-ethyl-4-methoxy-2-oxo-1,2-dihydropyridin-3-yl)methyl)-1-(1-methoxypropan-2-yl)-2-methyl-1H-pyrrolo[2,3-b]pyridine-3-carboxamide] | 0.1 to 1 | 1 to 10 |  |  | 
11 | CCOC(C)C(C)n1c(C)c(C(=O)NCc2c(OC)cc(C)[nH]c2=O)c2ccccc21 (racemic) [Compound 290, (±)-1-(3-ethoxybutan-2-yl)-N-((4-methoxy-6-methyl-2-oxo-1,2-dihydropyridin-3-yl)methyl)-2-methyl-1H-indole-3-carboxamide] | < 0.1 | 0.1 to 1 |  |  | 
12 | COCC(C)n1c(C)c(C(=O)NCc2c(OC)cc(C)[nH]c2=O)c2ccc(N3CCNCC3)nc21 (racemic) [Compound 295, (±)-N-((4-methoxy-6-methyl-2-oxo-1,2-dihydropyridin-3-yl)methyl)-1-(1-methoxypropan-2-yl)-2-methyl-6-(piperazin-1-yl)-1H-pyrrolo[2,3-b]pyridine-3-carboxamide] |  |  | 0.1 to 1 | 1 to 10 | 
13 | COCCOC(C)C(C)n1c(C)c(C(=O)NCc2c(OC)cc(C)[nH]c2=O)c2cccnc21 (racemic) [Compound 297, (±)-N-((4-methoxy-6-methyl-2-oxo-1,2-dihydropyridin-3-yl)methyl)-1-(3-(2-methoxyethoxy)butan-2-yl)-2-methyl-1H-pyrrolo[2,3-b]pyridine-3-carboxamide 2,2,2-trifluoroacetate] | < 0.1 | 0.1 to 1 |  |  | 
14 | COc1cc(C)[nH]c(=O)c1CNC(=O)c1c(C)n(C(C)CC#N)c2ncccc12 (racemic) [Compound 301, (±)-1-(1-cyanopropan-2-yl)-N-((4-methoxy-6-methyl-2-oxo-1,2-dihydropyridin-3-yl)methyl)-2-methyl-1H-pyrrolo[2,3-b]pyridine-3-carboxamide] | < 0.1 | 0.1 to 1 |  |  | 
15 | COCC(C)n1c(C)c(C(=O)NCc2c(OC)cc(C)[nH]c2=O)c2ccc(C(F)(F)F)nc21 (racemic) [Compound 309, (±)-N-((4-methoxy-6-methyl-2-oxo-1,2-dihydropyridin-3-yl)methyl)-1-(1-methoxypropan-2-yl)-2-methyl-6-(trifluoromethyl)-1H-pyrrolo[2,3-b]pyridine-3-carboxamide] | 0.1 to 1 | 1 to 10 |  |  | 
16 | COc1cc(C)[nH]c(=O)c1CNC(=O)c1c(C)n(C(C)C2CCC(F)(F)CC2)c2ncncc12 (racemic) [Compound 334, (±)-7-(1-(4,4-difluorocyclohexyl)ethyl)-N-((4-methoxy-6-methyl-2-oxo-1,2-dihydropyridin-3-yl)methyl)-6-methyl-7H-pyrrolo[2,3-d]pyrimidine-5-carboxamide] | < 0.1 | 0.1 to 1 |  |  | 
17 | Cc1cc(C)c(CNC(=O)c2cnn(C(C)c3ccccc3)c2C)c(O)n1 (single isomer, unassigned) [Compound 107, (R or S)—N-((2-hydroxy-4,6-dimethylpyridin-3-yl)methyl)-5-methyl-1-(1-phenylethyl)-1H-pyrazole-4-carboxamide] |  |  | > 10 | > 10 | 
18 | CCC(C)n1c(C)c(C(=O)NCc2c(C)cc(C)[nH]c2=O)c2cccnc21 (single isomer, unassigned) [Compound 195, (R or S)-1-(sec-butyl)-N-((4,6-dimethyl-2-oxo-1,2-dihydropyridin-3-yl)methyl)-2-methyl-1H-pyrrolo[2,3-b]pyridine-3-carboxamide] | 0.1 to 1 |  |  |  | *(0.5 μM)
19 | Cc1cc(C)c(COC(=O)c2c(C)n(C3CCc4ccccc43)c3ccccc23)c(=O)[nH]1 (single isomer, unassigned) [Compound 213, (R or S)-(4,6-dimethyl-2-oxo-1,2-dihydropyridin-3-yl)methyl 1-(2,3-dihydro-1H-inden-1-yl)-2-methyl-1H-indole-3-carboxylate] | < 0.1 | 0.1 to 1 |  |  | 
